Measurements reported in PubChem BioAssay (NCI).
“And” between values parts separate entries of the source, which are not always exact repeats. Identical values can stand only once.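 Interpolation was linear, between the two tested concentrations surrounding the appropriate level; five concentrations were tested over 48 hours in 96-well plates. At the GI50, growth is halved. TGI denotes the concentration required for complete inhibition of growth.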

Assays:
Experiment in all cases: NCI anticancer screen, dose series, 48 h
786-0 renal = tested on: 786-0 renal
UACC-257 melanoma = tested on: UACC-257 melanoma
T-47D breast = tested on: T-47D breast
EKVX NSCLC = tested on: EKVX NSCLC
LOX IMVI melanoma = tested on: LOX IMVI melanoma
OVCAR-4 ovarian = tested on: OVCAR-4 ovarian
MDA-MB-435 = tested on: MDA-MB-435
HS 578T breast = tested on: HS 578T breast
HOP-92 NSCLC = tested on: HOP-92 NSCLC
HCC-2998 colon = tested on: HCC-2998 colon

| Structure (SMILES) | GI50 (786-0 renal) | TGI (786-0 renal) | GI50 (UACC-257 melanoma) | TGI (UACC-257 melanoma) | GI50 (T-47D breast) | TGI (T-47D breast) | GI50 (EKVX NSCLC) | TGI (EKVX NSCLC) | GI50 (LOX IMVI melanoma) | TGI (LOX IMVI melanoma) | GI50 (OVCAR-4 ovarian) | TGI (OVCAR-4 ovarian) | GI50 (MDA-MB-435) | TGI (MDA-MB-435) | GI50 (HS 578T breast) | TGI (HS 578T breast) | GI50 (HOP-92 NSCLC) | TGI (HOP-92 NSCLC) | GI50 (HCC-2998 colon) | TGI (HCC-2998 colon) |
| --- | --- | --- | --- | --- | --- | --- | --- | --- | --- | --- | --- | --- | --- | --- | --- | --- | --- | --- | --- | --- |
| Clc1ccc2c(c1)N(C1CCCN(Cc3ccccc3)C1)c1ccccc1S2 (stereo not drawn) | 4.44 µM | > 100 µM | 18.3 µM | > 100 µM | 7.4 µM | > 100 µM | 4.22 µM | 79.9 µM | 6 µM | 35.8 µM | 18 µM | > 100 µM | 1.79 µM | 3.72 µM | 2.12 µM | 6.07 µM | 4.68 µM | 74.2 µM | 5.59 µM | 32.3 µM |
| COc1cc2c3c(n(CCCNCCCNCCN)c(=O)c2cc1OC)-c1cc2c(cc1C3=O)OCO2 | 26.2 µM | 82 µM | > 100 µM | > 100 µM | 46.8 µM | > 100 µM | > 100 µM | > 100 µM | 13.1 µM | 36.4 µM | 18.6 µM | 55.6 µM | 38 µM | > 100 µM | 48.7 µM | > 100 µM | 39.7 µM | > 100 µM | – | – |
| COC1C=COC2(C)Oc3c(C)c(O)c4c(O)c(c(C5SCCS5)c(O)c4c3C2=O)NC(=O)/C(C)=C\C=CC(C)C(O)C(C)C(O)C(C)C(OC(C)=O)C1C (stereo not drawn) | – | 48.4 µM | – | 17.8 µM | – | 11.7 µM | – | – | – | 4.57 µM | – | 20.5 µM | – | 16.1 µM | – | 40.6 µM | – | 26.1 µM | – | – |
| CC(=O)Nc1ccc(S(=O)(=O)N=S(C)C)cc1 | – | > 100 µM | – | > 100 µM | – | > 100 µM | – | > 100 µM | – | > 100 µM | – | > 100 µM | – | > 100 µM | – | > 100 µM | – | > 100 µM | – | > 100 µM |
| CN(C)Cc1ccc(NC(=O)c2cncc(C#Cc3cnc(N)c4ncccc34)c2)cc1F | 1.86 µM | 3.6 µM | 7.31 µM | 26.7 µM | 10.3 µM | 54.7 µM | 2 µM | 4.01 µM | – | – | – | – | 1.64 µM | 3.14 µM | 7.85 µM | 27.7 µM | 4.53 µM | 21.6 µM | 9.83 µM | 29.3 µM |
| Cn1c(=O)c(Oc2ccc(F)cc2F)cc2cnc(N[C@@H]3CCOC3)nc21 | > 25 µM | > 25 µM | > 25 µM | > 25 µM | > 25 µM | > 25 µM | – | – | > 25 µM | > 25 µM | > 25 µM | > 25 µM | > 25 µM | > 25 µM | > 25 µM | > 25 µM | 8.69 µM | > 25 µM | > 25 µM | > 25 µM |
| COc1ccc(-c2cn(-c3ccc(OC)c(OC)c3)c(=O)[nH]2)cc1 | > 100 µM | > 100 µM | – | – | 51.5 µM | > 100 µM | > 100 µM | > 100 µM | > 100 µM | > 100 µM | 75.7 µM | > 100 µM | 50.2 µM | > 100 µM | > 100 µM | > 100 µM | > 100 µM | > 100 µM | > 100 µM | > 100 µM |
| O=C(/C=C/c1ccccn1)c1ccc(OCc2nnc(-c3ccc(Cl)cc3)o2)cc1 | 1.78 µM | 3.23 µM | 1.98 µM | 4.06 µM | 2.65 µM | 8.64 µM | – | – | 1.57 µM | 3.01 µM | 3.42 µM | 12.4 µM | 1.71 µM | 3.6 µM | 3.33 µM | 10.3 µM | 2.35 µM | 6.33 µM | 1.8 µM | 3.26 µM |
| O=C(c1ccc([N+](=O)[O-])cc1)C(Br)C(Br)c1ccnc2ccccc12 (stereo not drawn) | – | 7.44 µM | – | 14.6 µM | – | > 56.6 µM | – | 34.3 µM | – | 4.71 µM | – | 25.5 µM | – | 7.85 µM | – | > 27.2 µM | – | 28.8 µM | – | – |
| COc1ccc2c(c1)CCc1cc(OC)ccc1/[N+]([O-])=[N+]\2[O-] | – | 18.6 µM | – | 35 µM | – | 49.1 µM | – | 42.5 µM | – | 42.7 µM | – | – | – | 32.2 µM | – | > 59.8 µM | – | 27.2 µM | – | 58.2 µM |
| Cc1ccc(-c2nc(-c3nccc4ccccc34)oc2-c2ccccc2)cc1 | – | > 100 µM | – | > 100 µM | – | > 100 µM | – | 64.5 µM | – | 48.2 µM | – | > 100 µM | – | > 100 µM | – | > 100 µM | – | > 100 µM | – | – |
| CC[C@H](C)[C@H](NC(=O)[C@H]1CCCCN1C)C(=O)N(C)[C@H](C[C@@H](OC(C)=O)c1cccc(C(=O)N[C@@H](Cc2ccccc2)C[C@H](C)C(=O)O)n1)C(C)C | 0.00555 µM and 0.0025 µM | > 25 µM | – | – | 0.00136 µM | – | 0.00493 µM and 0.0025 µM | > 25 µM | 0.00168 µM and 0.0025 µM | > 25 µM | 0.057 µM and 0.0168 µM | > 25 µM | 0.000279 µM and < 0.0025 µM | 0.00152 µM and < 0.0025 µM | 0.002 µM and 0.0025 µM | > 25 µM | – | – | 0.00551 µM and 0.0025 µM | > 25 µM |
| CCCc1nc(Cl)c(Cl)c(Cl)n1 | – | > 31.6 µM | – | > 100 µM | – | > 100 µM | – | 43.7 µM | – | 17.7 µM | – | 33.4 µM | – | > 62 µM | – | 44.3 µM | – | > 61.7 µM | – | – |
| COc1cc(-c2nc3ccccc3o2)cc(CN2CCCCC2)c1O | 20.3 µM | 89.8 µM | 2.06 µM | 5.51 µM | 17 µM | > 100 µM | 12.3 µM | > 100 µM | – | – | 9.48 µM | > 71.8 µM | 1.7 µM | 3.53 µM | 2.37 µM | 7.44 µM | 27 µM | > 100 µM | 4.73 µM | 22.4 µM |
| O=C1C=C(OCC=C(C(F)(F)F)C(F)(F)F)c2ccccc2C1=O | 3.97 µM | 13.9 µM | 1.42 µM | 2.77 µM | 0.777 µM | 3.7 µM | – | – | 1.56 µM | 3.46 µM | 1.53 µM | 2.91 µM | 1.74 µM | 3.3 µM | 2.06 µM | 7.21 µM | 1.9 µM | 4.37 µM | 1.84 µM | 3.73 µM |
| CC1=C(C(=O)Nc2ccc(F)c(Cl)c2)C(c2cccc(Oc3ccccc3)c2)NC(=S)N1 (stereo not drawn) | 10.8 µM | 21.5 µM | 13.5 µM | 33.5 µM | 40.4 µM | > 50 µM | 14.8 µM | 41.5 µM | 8.77 µM | 20.2 µM | – | – | 11.9 µM | 33.8 µM | 13.3 µM | 29.2 µM | 21 µM | > 50 µM | 23.8 µM | > 50 µM |
| CCC(=O)N1C/C(=C/c2ccc(Br)cc2)C(=O)/C(=C/c2ccc(Br)cc2)C1 | 0.546 µM | 1.2 µM | 1.63 µM | 3.47 µM | 0.673 µM | 2.54 µM | – | – | < 0.0333 µM | 0.248 µM | 1.01 µM | 3.75 µM | 0.524 µM | 1.46 µM | 0.644 µM | 4.12 µM | 1.69 µM | 4.13 µM | 0.802 µM | 2.09 µM |
| Cn1cc(C2=C(c3cn(CCCN)c4ccccc34)C(=O)NC2=O)c2ccccc21 | 4.75 µM | 14.2 µM | 4.9 µM | 9.05 µM | 6.4 µM | 17.5 µM | – | – | 3.4 µM | 7.49 µM | 4.22 µM | 12.9 µM | 2.66 µM | 6.62 µM | 3.91 µM | 16.8 µM | 8.26 µM | 17.6 µM | 5.84 µM | 16.2 µM |
| Cc1nc2sc3c(N)ncnc3c2c(C)c1C | > 25 µM | > 25 µM | > 25 µM | > 25 µM | > 25 µM | > 25 µM | – | – | > 25 µM | > 25 µM | > 25 µM | > 25 µM | > 25 µM | > 25 µM | 24.9 µM | > 25 µM | > 25 µM | > 25 µM | > 25 µM | > 25 µM |
| Oc1[nH]c2ccccc2c1/C=c1/ccc2c(c1)N=C(c1ccc(C(F)(F)F)cc1)N=2 | 1.48 µM | 3.56 µM | 7.4 µM | 21.5 µM | 3.58 µM | 14.4 µM | 4.34 µM | 16.9 µM | 1.82 µM | 5.37 µM | 3.94 µM | 15.8 µM | 1.17 µM | 5.69 µM | 3.09 µM | 12.7 µM | – | – | 3.77 µM | 16.2 µM |
| COc1ccccc1/C=C\C(=O)C1COCN1 (stereo not drawn) | – | 75.5 µM | – | 34 µM | – | 20.7 µM | – | 42.6 µM | – | 38.1 µM | – | 53.2 µM | – | 26.4 µM | – | 50.9 µM | – | – | – | – |
| CNC(=O)c1c(F)cccc1Nc1nc(Nc2cc3c(cc2OC)CCN3C(=O)CN(C)C)nc2[nH]ccc12 | 11.3 µM | 33.2 µM | – | – | 8.19 µM | 28.4 µM | – | – | 2.4 µM | 7.26 µM | 1.87 µM | 3.99 µM | 1.4 µM | 3.51 µM | 17.8 µM | 46.8 µM | 0.0309 µM | 1.6 µM | 4.42 µM | 9.2 µM |
| O=C(Nc1cc(Cl)cc(Cl)c1)c1cccc(NC2=C(Cl)C(=O)N(Cc3ccccc3)C2=O)c1 | 26.8 µM | > 100 µM | – | – | 66.5 µM | > 100 µM | – | – | 12.1 µM | > 100 µM | 81.3 µM | > 100 µM | 21.8 µM | 88.1 µM | 32.7 µM | > 100 µM | 18.9 µM | 85.7 µM | 37.1 µM | > 100 µM |
